Measured values reported in US20160160213A1, “METHODS OF TREATING CANCER AND PREVENTING CANCER DRUG RESISTANCE” (Genentech, Inc., priority 2013, published 2016).
“Also recorded” adds a separate entry of the source.

Tests used:
H3K27me3 = conditions: cited from earlier work
EZH2 = EZH2 (Homo sapiens, UniProt Q15910); conditions: read-out: EZH2 Ki^app; cited from earlier work
PC9 DTP [1] = assay: HDAC biased inhibitors on PC9 DTP with erlotinib, 30 days; format: cell-based, human; conditions: G946 50 nM, G877 5 μM, erlotinib 1 μM
Description: FIG. 17A, FIG. 17B and FIG. 17C | HDAC (1), 2 and 3 are involved in the establishment of drug tolerance. siRNA against HDAC2 and 3 as well as inhibitors that are HDAC1/2 or 3 biased disrupt the drug-tolerant state. (A-B) Effect of siRNA knockdown of essential components of HDAC2 and HDAC3 on PC9 parental (light grey bars: media conditions) or DTP (dark grey: erlotinib condition) cell number using 4 different specific siRNAs per gene. Data are presented along with the data for the non-targeting (NTC) and siTOX controls in similar treatment conditions. (C) Effect of (C1) G946, HDAC1/2 biased inhibitor, and (C2) G877, HDAC3 biased inhibitor. G946 and G877 were tested at concentrations 50 nM and 5 μM, respectively. PC9 cells were treated with (DTP) (DMSO/erlotinib or HDAC inhibitor/erlotinib) (C1 and C2) for 30 days or without erlotinib (parental) (DMSO/Media or HDAC inhibitor/Media) (data not shown). Erlotinib concentration 1 μM.
To further investigate the role of HDACs in the establishment of drug tolerance, siRNA against HDAC2 and 3 as well as inhibitors that are HDAC1/2 or 3 biased were tested for their ability to disrupt the drug-tolerant state.

[2] = test system: EZH2 levels and trimethylation of lysine 27 on histone H3; conditions: cultured human acute myeloid leukemia, dose-dependent manner (0.2-1 μM); cited from earlier work
PC9 cells = assay: DZNep cell treatment, PC9 parental/DTP cell viability (CyQUANT Direct); format: cell-based, human
Description: DZNep was tested at concentrations ranging from 0.625 to 40 μM (A). PC9 cells were treated for 48 hours either with DZNep (DZNep/Media or DZNep/erlotinib) or DMSO control (DMSO/Media or DMSO/erlotinib) before treatment with (DTP) (DMSO/erlotinib or DZNep/erlotinib) or without erlotinib (parental)(DMSO/Media or DZNep/Media) for 72 hours. Cell number was determined after a 48-72 hours recovery phase in media alone. Effect of DZNep at 5 (B) and 0.625 μM (C) on PC9 parental (solid gray bars: media conditions) or DTP (diamond bars: erlotinib condition) cell number.
PC9 cells were seeded in black 96 well clear bottom plates (Coming, catalog #3603) at 1000 cells per well before to be treated with various concentration of 3-deazaneplanocin A (DZNep) from 40 down to 0.625 μM. After 48 hours of DZNep treatment the media was replaced with fresh media alone or in presence of 1 μM erlotinib. After 72 hours of incubation the media +/− erlotinib was then replaced with fresh media to enable recovery of the drug tolerant persisters (DTPs) that survived after the drug treatment. After 3 days recovery phase, final cell viability was measured using CyQUANT Direct cell proliferation assay (Molecular Probes) according to the manufacturer protocol. CyQUANT fluorescent signal was detected using a GE IN Cell Analyzer 2000 (4× objective) and quantified as number of cell per well using an image analysis algorithm developed using GE Developer Tollbox 1.9.1. Screening data were subsequently processed in Microsoft Excel. The entire Epi300 siRNA screen was run on each cell line twice in completely independent conditions.

H3K27me3 in EVSAT DTPs = assay: Histone H3K27me3 Western blot in EVSAT DTPs treated with GDC-0908; format: cell-based; conditions: GSK126 0.1, 0.5, 2.5 μM, EPZ-6438 0.05, 0.1, 0.5 μM, GDC-0908 2 μM
Description: GDC-0908 concentration 2 μM for FIG. 21A and FIG. 21B.
(§1) Cell lysates were prepared in Laemmli sample buffer and analyzed by immunoblotting as described previously. Cell lysates were analyzed using commercial antibodies against modifications on H3 (Active Motif and Cell Signaling Technologies).

H3K27me3 in PC9 DTPs = assay: Histone H3K27me3 Western blot in PC9 DTPs treated with erlotinib; format: cell-based, human; conditions: GSK126 0.1, 0.5, 2.5 μM, EPZ-6438 0.05, 0.1, 0.5, 1, 1.5 μM, erlotinib 1 μM
Description: FIG. 20A, FIG. 20B, FIG. 20C and FIG. 20D | EZH2 inhibitors (GSK126) disrupt the drug-tolerant state. (A) Increase in histone H3K27me^3 in PC9 DTPs treated with erlotinib is inhibited by EZH2 small molecule inhibitor (GSK126) at 0.1, 0.5, and 2.5 μM as shown by Western blot. (B) nuc-red PC9 cells were treated with DMSO/erlotinib or GSK126/erlotinib at 0.1, 0.5, or 2.5 μM (dark grey bar) or without erlotinib (DMSO/Media or GSK126/Media) (light grey bar) and analyzed IncuCyte™ at day 9 and 3, respectively. (C) nuc-red PC9 cells were treated with DMSO/erlotinib or GSK126/erlotinib at 2.5 μM for 9 days and imaged. (D) nuc-red PC9 cells were treated with DMSO/erlotinib or GSK126/erlotinib at 2.5 μM for 30 days and stained with Giemsa. Erlotinib concentration 1 μM for FIG. 20A, FIG. 20B, FIG. 20C and FIG. 20D.
(D) nuc-red PC9 cells were treated with DMSO/erlotinib or […] at 0.05, 0.1, or 1.0 μM) for 30 days and stained with Giemsa. Erlotinib concentration 1 μM for FIG. 22A, FIG. 22B, FIG. 22C and FIG. 22D.
as §1

EVSAT DTP = assay: EZH2 inhibitors on EVSAT DTP cell growth with PI3K inhibitor (IncuCyte); format: cell-based; conditions: GDC-0908 2 μM; GSK126 0.1, 0.5, 2.5 μM; EPZ-6438 0.05, 0.1, 0.5 μM
PC9 DTP [3] = assay: EZH2 inhibitors on PC9 DTP cell growth with erlotinib (IncuCyte, Giemsa); format: cell-based, human; conditions: erlotinib 1 μM; GSK126 0.1-2.5 μM; EPZ-6438 0.05-1.5 μM; day 9 and 30 days
Description: (A) Effect of siRNA knockdown of EZH2 on PC9 parental (light grey bars: media conditions) or DTP (dark grey: erlotinib condition) cell number using 8 different specific siRNAs (Dharmacon siGenome (×4) and On-Target Plus (OTP)(×4)) per gene. […] (B) Effect of GSK126 was tested at a concentration 1 μM.

SKBR3 cells = assay: TSA on SKBR3 drug tolerant cells (radiotherapy or lapatinib); format: cell-based; conditions: SKBR3, 2.5 Gy and 10 Gy, 25 nM TSA
Description: FIG. 16A, FIG. 16B and FIG. 16C | DTPs in a variety of models display increased sensitivity to HDAC inhibitors. (A) SKBR3 treated with 2.5 Gy in media alone or presence of 25 nM of the HDAC inhibitor TSA. (B) SKBR3 treated with 10 Gy in media alone or presence of 25 nM of the HDAC inhibitor TSA. (C) SKBR3 treated with 1 μM Lapatinib in media alone or presence of 25 nM of the HDAC inhibitor TSA.
The role of histone deacetylases was further test in additional models to elucidate their role in drug tolerance. The class I and II HDAC inhibitor TSA was tested in SKBR3 cells in combination with radiotherapy at 2.5 Gy and 10 Gy.

PC9 xenografts = assay: PC9 xenograft tumor study; format: in vivo; conditions: nude mice
Description: FIG. 18 | Effect of HDAC Inhibition using TSA (0.5 mg/kg) on erlotinib response in PC9 xenografts.
PC9 cells were cultured in growth media (RPMI 1640, 10% heat-inactivated fetal calf serum, 2 mM L-glutamine) to 80% confluency and then trypsinized, washed once with PBS, and resuspended in either Hank's Balanced Salt Solution (HBSS) or a 1:1 mixture of HBSS with matrigel [growth factor reduced; catalog #356231 (BD Biosciences, West Grove, Pa.)] to a final concentration of 5×10^7 cells/ml. Each xenograft tumor model was established using 5×10^6 cells (100 μL) inoculated subcutaneously (s.c.) in the rear right flank of immunocompromised mice. PC-9 and PC-9-GFP cells were implanted in HBSS with matrigel in nude (nu/nu) mice (Charles River Laboratories, Hollister, Calif.). When tumor volumes reach approximately 100-200 mm^3, mice were separated into groups of animals with similarly sized tumors, and treatment was initiated the day after grouping. Mice were dosed for 5 days a week (QD) oral gavage (PO) with erlotinib (50 mg/kg in 7.5% Captisol for first 4 doses then lowered to 35 mg/kg in 7.5% Captisol) and/or TSA (0.5 mg/kg) with appropriate vehicle control. […]

Chain of EZH2 (Q15910 whole entry): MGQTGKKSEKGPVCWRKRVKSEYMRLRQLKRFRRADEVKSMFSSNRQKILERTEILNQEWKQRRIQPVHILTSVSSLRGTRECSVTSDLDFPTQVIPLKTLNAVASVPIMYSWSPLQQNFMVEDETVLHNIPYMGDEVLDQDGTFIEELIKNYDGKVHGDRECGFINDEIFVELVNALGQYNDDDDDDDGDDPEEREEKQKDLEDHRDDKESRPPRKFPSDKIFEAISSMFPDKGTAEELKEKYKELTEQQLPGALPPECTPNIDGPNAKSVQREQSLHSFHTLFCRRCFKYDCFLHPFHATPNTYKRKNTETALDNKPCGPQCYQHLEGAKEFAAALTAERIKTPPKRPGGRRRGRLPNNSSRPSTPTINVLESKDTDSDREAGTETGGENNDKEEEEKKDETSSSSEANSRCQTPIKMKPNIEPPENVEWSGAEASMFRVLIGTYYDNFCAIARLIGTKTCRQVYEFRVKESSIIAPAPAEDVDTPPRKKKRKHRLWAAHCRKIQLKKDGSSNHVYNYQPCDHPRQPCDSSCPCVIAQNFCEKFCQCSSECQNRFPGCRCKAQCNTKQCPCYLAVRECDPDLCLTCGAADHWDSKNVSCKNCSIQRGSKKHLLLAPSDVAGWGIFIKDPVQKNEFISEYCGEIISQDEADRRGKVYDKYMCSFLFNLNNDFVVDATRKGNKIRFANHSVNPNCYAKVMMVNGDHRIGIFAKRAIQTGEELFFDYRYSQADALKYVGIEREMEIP
Chain of EZH2 (O75530 whole entry partner): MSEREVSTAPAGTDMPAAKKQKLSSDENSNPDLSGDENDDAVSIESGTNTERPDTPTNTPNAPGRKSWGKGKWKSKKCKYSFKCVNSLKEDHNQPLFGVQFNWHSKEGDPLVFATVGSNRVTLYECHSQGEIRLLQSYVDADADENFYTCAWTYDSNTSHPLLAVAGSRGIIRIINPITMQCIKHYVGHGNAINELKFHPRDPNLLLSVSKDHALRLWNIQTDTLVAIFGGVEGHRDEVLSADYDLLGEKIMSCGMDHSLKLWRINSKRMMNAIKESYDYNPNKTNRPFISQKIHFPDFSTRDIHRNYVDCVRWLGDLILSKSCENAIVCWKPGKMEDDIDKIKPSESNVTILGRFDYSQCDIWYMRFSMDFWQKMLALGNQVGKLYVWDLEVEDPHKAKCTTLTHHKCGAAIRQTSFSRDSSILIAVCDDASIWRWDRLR
Chain of EZH2 (Q15022 whole entry partner): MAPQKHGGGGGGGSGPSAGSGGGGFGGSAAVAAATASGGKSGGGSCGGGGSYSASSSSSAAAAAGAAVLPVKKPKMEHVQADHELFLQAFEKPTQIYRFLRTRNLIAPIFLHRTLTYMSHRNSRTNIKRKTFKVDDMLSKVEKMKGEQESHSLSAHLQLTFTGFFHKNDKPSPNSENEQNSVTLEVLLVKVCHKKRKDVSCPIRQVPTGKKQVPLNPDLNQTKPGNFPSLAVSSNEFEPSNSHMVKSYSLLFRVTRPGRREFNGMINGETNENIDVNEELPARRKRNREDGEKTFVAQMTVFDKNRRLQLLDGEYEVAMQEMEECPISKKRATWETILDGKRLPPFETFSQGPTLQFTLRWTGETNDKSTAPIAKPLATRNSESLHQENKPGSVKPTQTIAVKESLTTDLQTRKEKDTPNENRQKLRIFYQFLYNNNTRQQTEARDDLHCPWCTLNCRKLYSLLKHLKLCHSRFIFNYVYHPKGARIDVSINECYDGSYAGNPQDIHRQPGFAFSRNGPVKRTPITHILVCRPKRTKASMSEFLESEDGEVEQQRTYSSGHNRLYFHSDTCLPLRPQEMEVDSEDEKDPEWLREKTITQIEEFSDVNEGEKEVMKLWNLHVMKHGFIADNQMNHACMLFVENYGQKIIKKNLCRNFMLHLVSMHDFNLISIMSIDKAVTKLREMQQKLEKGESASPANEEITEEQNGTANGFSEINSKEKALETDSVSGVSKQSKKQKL
Chain of EZH2 (Q09028 whole entry partner): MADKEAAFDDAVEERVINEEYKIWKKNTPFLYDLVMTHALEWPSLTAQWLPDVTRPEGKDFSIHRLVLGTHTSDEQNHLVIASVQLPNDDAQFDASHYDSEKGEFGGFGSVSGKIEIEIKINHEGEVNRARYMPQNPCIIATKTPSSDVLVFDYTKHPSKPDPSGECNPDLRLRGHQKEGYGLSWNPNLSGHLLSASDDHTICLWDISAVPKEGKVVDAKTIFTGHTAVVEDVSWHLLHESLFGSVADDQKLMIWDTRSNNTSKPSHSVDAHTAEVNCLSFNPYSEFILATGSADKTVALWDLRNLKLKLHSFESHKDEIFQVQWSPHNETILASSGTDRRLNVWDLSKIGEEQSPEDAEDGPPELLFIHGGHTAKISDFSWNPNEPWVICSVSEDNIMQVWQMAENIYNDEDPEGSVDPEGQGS

Cc1cc(C)c(CNC(=O)c2cc(C3CC3)cc3c2cnn3C(C)C)c(=O)[nH]1 [Compound 2]
IC50 (H3K27me3): 2510 nM | Ki (EZH2): 74 ± 11 nM

CCCc1cc(C)[nH]c(=O)c1CNC(=O)c1cc(-c2ccc(N3CCN(C)CC3)nc2)cc2c1cnn2C(C)C [Compound 4]
IC50 (H3K27me3): 79 ± 7 nM | Ki (EZH2): 0.6 ± 0.05 nM

Cc1cc(C)c(CNC(=O)c2cc(-c3ccnc(N4CCN(C)CC4)c3)cc3c2cnn3C(C)C)c(=O)[nH]1 [Compound 5]
IC50 (H3K27me3): 2000 nM | Ki (EZH2): 14 ± 5 nM

CCCc1cc(C)[nH]c(=O)c1CNC(=O)c1cc(-c2ccnc(N3CCN(C)CC3)c2)cc2c1cnn2C(C)C [Compound 6]
IC50 (H3K27me3): 174 ± 84 nM

Cc1ccc(C(=O)NCCCCCC(=O)Nc2ccc(F)cc2N)cc1 [Compound G877]
cell growth of PC9 DTP with erlotinib (PC9 DTP [1]): effective in reducing cell growth

CC(=O)Nc1ccc(C(=O)Nc2cc(-c3cccs3)ccc2N)cc1 [Compound G946]
cell growth of PC9 DTP with erlotinib (PC9 DTP [1]): effective in reducing cell growth

Nc1nccc2c1ncn2[C@@H]1C=C(CO)[C@@H](O)[C@H]1O [DZNep, 3-deazaneplanocin A]
EZH2 levels and trimethylation of lysine 27 on histone H3 [2]: deplete EZH2 levels and to inhibit trimethylation of lysine 27 on histone H3 | cell killing compared to erlotinib alone (PC9 cells; DZNep 0.625 uM with 1 μM erlotinib): 75.8% | cell killing compared to erlotinib alone (PC9 cells; DZNep 5 uM with 1 μM erlotinib): 87.5% | effect by itself on PC9 DTP cell viability (PC9 cells; DZNep 0.625 and 5 uM, without erlotinib): not effect | cell viability in media alone (PC9 cells; DZNep 0.625 to 10 uM, media alone): minimum impact | PC9 DTP cell viability in combination with erlotinib (PC9 cells; DZNep concentrations as low as 0.625 uM, 1 μM erlotinib): very significantly decrease

CCN(c1cc(-c2ccc(CN3CCOCC3)cc2)cc(C(=O)NCc2c(C)cc(C)[nH]c2=O)c1C)C1CCOCC1 [EPZ-6438, N-((4,6-dimethyl-2-oxo-1,2-dihydropyridin-3-yl)methyl)-5-(ethyl(tetrahydro-2H-pyran-4-yl)amino)-4-methyl-4′-(morpholinomethyl)-[1,1′-biphenyl]-3-carboxamide]
histone H3K27me3 (H3K27 trimethylation) in EVSAT DTPs treated with GDC-0908 (H3K27me3 in EVSAT DTPs): effective in reducing H3K27 trimethylation; also recorded: inhibited | histone H3K27me3 (H3K27 trimethylation) in PC9 DTPs treated with erlotinib (H3K27me3 in PC9 DTPs): effective in reducing H3K27 trimethylation; also recorded: inhibited

CC[C@H](C)n1cc(C)c2c(C(=O)NCc3c(C)cc(C)[nH]c3=O)cc(-c3ccc(N4CCNCC4)nc3)cc21 [GSK126, (S)-1-(sec-butyl)-N-((4,6-dimethyl-2-oxo-1,2-dihydropyridin-3-yl)methyl)-3-methyl-6-(6-(piperazin-1-yl)pyridin-3-yl)-1H-indole-4-carboxamide]
histone H3K27me3 (H3K27 trimethylation) in EVSAT DTPs treated with GDC-0908 (H3K27me3 in EVSAT DTPs): effective in reducing H3K27 trimethylation; also recorded: inhibited | cell growth of EVSAT DTP with PI3 kinase inhibitor (EVSAT DTP): effective in reducing cell growth in a dose dependent manner | cell growth of PC9 DTP with erlotinib (PC9 DTP [3]): effective in reducing cell growth in a dose dependent manner | histone H3K27me3 (H3K27 trimethylation) in PC9 DTPs treated with erlotinib (H3K27me3 in PC9 DTPs): effective in reducing H3K27 trimethylation; also recorded: inhibited

CC(/C=C/C(=O)NO)=C\[C@@H](C)C(=O)c1ccc(N(C)C)cc1 [TSA, Trichostatin A]
effect on radiotherapy drug tolerant cells (SKBR3 cells): significant effect and eliminated radiotherapy drug tolerant cells | tumor growth, TSA alone (PC9 xenografts; TSA 0.5 mg/kg): no effect | tumor relapse, combination of erlotinib+TSA (PC9 xenografts; TSA 0.5 mg/kg with erlotinib 50 then 35 mg/kg PO): substantial delay in tumor relapse
